SMILES strings stand for the structures. ≈ marks a conversion by molar mass, not a printed value. Positions of bridges follow the written chain, without caps; N, C: chain ends. Non-standard residues stand in square brackets, D forms with d. Residues, ends and D or L forms follow the SMILES beside them. R8 = C=CCCCCCC[C@@](C)(N)C(=O)O; S5 = C=CCCC[C@](C)(N)C(=O)O

What all share (assay type): functional
One experiment relates to Klebsiella pneumoniae. The experiment can be described thus: Antimicrobial activity against Klebsiella pneumoniae ATCC 13883 assessed as growth inhibition measured after 8 hrs incubation by standard broth dilution assay. On the technique in general: Broth dilution looks for growth in wells or tubes with falling amounts of substance.
In the next experiment the test system is Staphylococcus aureus. As to the kind of experiment: Antimicrobial activity against methicillin-resistant Staphylococcus aureus ATCC 43300 assessed as growth inhibition measured after 8 hrs incubation by standard broth dilution assay.
A further experiment relates to Pseudomonas aeruginosa. As to the kind of experiment: Antimicrobial activity against Pseudomonas aeruginosa ATCC 27853 assessed as growth inhibition measured after 8 hrs incubation by standard broth dilution assay.
The next experiment concerns Streptococcus pneumoniae. The experiment can be described thus: Antimicrobial activity against Streptococcus pneumoniae ATCC 49619 assessed as growth inhibition measured after 8 hrs incubation by standard broth dilution assay.

Regarding `CC(=O)N[C@@H](CC(C)C)C(=O)N[C@@H](CCCCN)C(=O)N[C@@H](CCCNC(=N)N)C(=O)N[C@H](C(=O)N[C@@H](Cc1c[nH]c2ccccc12)C(=O)N[C@@H](CCCCN)C(=O)N[C@@H](CCCNC(=N)N)C(=O)N[C@H](C(=O)N[C@@H](Cc1ccccc1)C(=O)N[C@@H](CCCCN)C(=O)N[C@@H](CC(C)C)C(=O)N[C@@H](CC(C)C)C(=O)N[C@@H](CCCCN)C(=O)N[C@@H](CCCNC(=N)N)C(=O)N[C@]1(C)CCCCCC/C=C\CCC[C@@](C)(C(=O)N[C@H](C(=O)N[C@@H](CCCNC(=N)N)C(N)=O)C(C)C)NC(=O)[C@H](CCCCN)NC(=O)[C@H](CCCCN)NC(=O)[C@H](CC(C)C)NC(=O)[C@H](CCC(N)=O)NC(=O)[C@H](CCCNC(=N)N)NC(=O)[C@H](Cc2c[nH]c3ccccc23)NC1=O)C(C)C)C(C)C` (Ac-LKRVWKRVFKLLKR[R8]WRQLKK[S5]VR-NH2; staple (Z) 15-22), the MIC worked out at 38 mg/L (≈ 11.5 µM) in the experiment with Klebsiella pneumoniae, 4.9 mg/L (≈ 1.49 µM) in the experiment on Staphylococcus aureus, 9.9 mg/L (≈ 3 µM) with Pseudomonas aeruginosa and 37.7 mg/L (≈ 11.4 µM) with Streptococcus pneumoniae.

Consider `CC(=O)N[C@@H](CC(C)C)C(=O)N[C@@H](CCCCN)C(=O)N[C@@H](CCCNC(=N)N)C(=O)N[C@H](C(=O)N[C@@H](Cc1c[nH]c2ccccc12)C(=O)N[C@@H](CCCCN)C(=O)N[C@@H](CCCNC(=N)N)C(=O)N[C@H](C(=O)N[C@@H](Cc1ccccc1)C(=O)N[C@@H](CCCCN)C(=O)N[C@@H](CC(C)C)C(=O)N[C@@H](CC(C)C)C(=O)N[C@@H](CCCCN)C(=O)N[C@@H](CCCNC(=N)N)C(=O)N[C@@]1(C)CCC/C=C\CCC[C@@](C)(C(=O)N[C@@H](CCCCN)C(=O)N[C@@H](CCCCN)C(=O)N2CCC[C@H]2C(=O)N[C@H](C(=O)N[C@@H](CCCNC(=N)N)C(N)=O)C(C)C)NC(=O)[C@H](CCC(N)=O)NC(=O)[C@H](CCCNC(=N)N)NC(=O)[C@H](Cc2c[nH]c3ccccc23)NC1=O)C(C)C)C(C)C` (Ac-LKRVWKRVFKLLKR[S5]WRQ[S5]KKPVR-NH2; staple (Z) 15-19), for which the MIC in the experiment with Klebsiella pneumoniae is 38 mg/L (≈ 11.7 µM); in the experiment with Staphylococcus aureus it was 19.1 mg/L (≈ 5.89 µM); with Pseudomonas aeruginosa, 9.9 mg/L (≈ 3.05 µM); with Streptococcus pneumoniae, 37.7 mg/L (≈ 11.6 µM).

Turning to `CC(=O)N[C@@H](CC(C)C)C(=O)N[C@@H](CCCCN)C(=O)N[C@@H](CCCNC(=N)N)C(=O)N[C@H](C(=O)N[C@@H](Cc1c[nH]c2ccccc12)C(=O)N[C@@H](CCCCN)C(=O)N[C@@H](CCCNC(=N)N)C(=O)N[C@H](C(=O)N[C@@H](Cc1ccccc1)C(=O)N[C@@H](CCCCN)C(=O)N[C@@H](CC(C)C)C(=O)N[C@]1(C)CCCCCC/C=C\CCC[C@@](C)(C(=O)N[C@@H](CCCCN)C(=O)N[C@@H](CCCCN)C(=O)N2CCC[C@H]2C(=O)N[C@H](C(=O)N[C@@H](CCCNC(=N)N)C(N)=O)C(C)C)NC(=O)[C@H](CCC(N)=O)NC(=O)[C@H](CCCNC(=N)N)NC(=O)[C@H](Cc2c[nH]c3ccccc23)NC(=O)[C@H](Cc2ccc(O)cc2)NC(=O)[C@H](CCCNC(=N)N)NC(=O)[C@H](CCCCN)NC1=O)C(C)C)C(C)C` (Ac-LKRVWKRVFKL[R8]KRYWRQ[S5]KKPVR-NH2; staple (Z) 12-19), the MIC is 38 mg/L (≈ 11.4 µM) with Klebsiella pneumoniae, 4.9 mg/L (≈ 1.47 µM) in the experiment with Staphylococcus aureus, 2.6 mg/L (≈ 0.78 µM) in the experiment with Pseudomonas aeruginosa and 4.7 mg/L (≈ 1.41 µM) in the experiment with Streptococcus pneumoniae.

In the case of `CC(=O)N[C@@H](CC(C)C)C(=O)N[C@@H](CCCCN)C(=O)N[C@@H](CCCNC(=N)N)C(=O)N[C@H](C(=O)N[C@@H](Cc1c[nH]c2ccccc12)C(=O)N[C@@H](CCCCN)C(=O)N[C@@H](CCCNC(=N)N)C(=O)N[C@H](C(=O)N[C@@H](Cc1ccccc1)C(=O)N[C@@H](CCCCN)C(=O)N[C@@H](CC(C)C)C(=O)N[C@@]1(C)CCC/C=C\CCC[C@@](C)(C(=O)N[C@@H](CCCNC(=N)N)C(=O)N[C@@H](CCC(N)=O)C(=O)N[C@@H](CC(C)C)C(=O)N[C@@H](CCCCN)C(=O)N[C@@H](CCCCN)C(=O)N2CCC[C@H]2C(=O)N[C@H](C(=O)N[C@@H](CCCNC(=N)N)C(N)=O)C(C)C)NC(=O)[C@H](Cc2ccc(O)cc2)NC(=O)[C@H](CCCNC(=N)N)NC(=O)[C@H](CCCCN)NC1=O)C(C)C)C(C)C` (Ac-LKRVWKRVFKL[S5]KRY[S5]RQLKKPVR-NH2; staple (Z) 12-16), the MIC in the experiment with Klebsiella pneumoniae stood at 38 mg/L (≈ 11.8 µM); with Staphylococcus aureus, 9.7 mg/L (≈ 3.01 µM); in the experiment on Pseudomonas aeruginosa, 5 mg/L (≈ 1.55 µM); in the experiment with Streptococcus pneumoniae it was 4.7 mg/L (≈ 1.46 µM).

Regarding `CC(=O)N[C@@H](CC(C)C)C(=O)N[C@@H](CCCCN)C(=O)N[C@@H](CCCNC(=N)N)C(=O)N[C@H](C(=O)N[C@@H](Cc1c[nH]c2ccccc12)C(=O)N[C@@H](CCCCN)C(=O)N[C@@H](CCCNC(=N)N)C(=O)N[C@H](C(=O)N[C@@H](Cc1ccccc1)C(=O)N[C@@H](CCCCN)C(=O)N[C@]1(C)CCCCCC/C=C\CCC[C@@](C)(C(=O)N[C@@H](CC(C)C)C(=O)N[C@@H](CCCCN)C(=O)N[C@@H](CCCCN)C(=O)N2CCC[C@H]2C(=O)N[C@H](C(=O)N[C@@H](CCCNC(=N)N)C(N)=O)C(C)C)NC(=O)[C@H](CCCNC(=N)N)NC(=O)[C@H](Cc2c[nH]c3ccccc23)NC(=O)[C@H](Cc2ccc(O)cc2)NC(=O)[C@H](CCCNC(=N)N)NC(=O)[C@H](CCCCN)NC(=O)[C@H](CC(C)C)NC1=O)C(C)C)C(C)C` (Ac-LKRVWKRVFK[R8]LKRYWR[S5]LKKPVR-NH2; staple (Z) 11-18), the MIC was found to be 4.9 mg/L (≈ 1.48 µM) with Klebsiella pneumoniae, 9.7 mg/L (≈ 2.92 µM) in the experiment on Staphylococcus aureus, 5 mg/L (≈ 1.51 µM) in the experiment with Pseudomonas aeruginosa and 37.7 mg/L (≈ 11.4 µM) with Streptococcus pneumoniae.

For `CC(=O)N[C@@H](CC(C)C)C(=O)N[C@@H](CCCCN)C(=O)N[C@@H](CCCNC(=N)N)C(=O)N[C@H](C(=O)N[C@@H](Cc1c[nH]c2ccccc12)C(=O)N[C@@H](CCCCN)C(=O)N[C@@H](CCCNC(=N)N)C(=O)N[C@H](C(=O)N[C@@H](Cc1ccccc1)C(=O)N[C@@H](CCCCN)C(=O)N[C@@]1(C)CCC/C=C\CCC[C@@](C)(C(=O)N[C@@H](Cc2c[nH]c3ccccc23)C(=O)N[C@@H](CCCNC(=N)N)C(=O)N[C@@H](CCC(N)=O)C(=O)N[C@@H](CC(C)C)C(=O)N[C@@H](CCCCN)C(=O)N[C@@H](CCCCN)C(=O)N2CCC[C@H]2C(=O)N[C@H](C(=O)N[C@@H](CCCNC(=N)N)C(N)=O)C(C)C)NC(=O)[C@H](CCCNC(=N)N)NC(=O)[C@H](CCCCN)NC(=O)[C@H](CC(C)C)NC1=O)C(C)C)C(C)C` (Ac-LKRVWKRVFK[S5]LKR[S5]WRQLKKPVR-NH2; staple (Z) 11-15), the MIC in the experiment with Klebsiella pneumoniae came out at 38 mg/L (≈ 11.7 µM); in the experiment on Staphylococcus aureus, 2.5 mg/L (≈ 0.771 µM); in the experiment on Pseudomonas aeruginosa, 38.1 mg/L (≈ 11.8 µM); in the experiment on Streptococcus pneumoniae, 37.7 mg/L (≈ 11.6 µM).

On to `CC(=O)N[C@@H](CC(C)C)C(=O)N[C@@H](CCCCN)C(=O)N[C@@H](CCCNC(=N)N)C(=O)N[C@H](C(=O)N[C@@H](Cc1c[nH]c2ccccc12)C(=O)N[C@@H](CCCCN)C(=O)N[C@@H](CCCNC(=N)N)C(=O)N[C@H](C(=O)N[C@]1(C)CCCCCC/C=C\CCC[C@@](C)(C(=O)N[C@@H](CCCNC(=N)N)C(=O)N[C@@H](CCC(N)=O)C(=O)N[C@@H](CC(C)C)C(=O)N[C@@H](CCCCN)C(=O)N[C@@H](CCCCN)C(=O)N2CCC[C@H]2C(=O)N[C@H](C(=O)N[C@@H](CCCNC(=N)N)C(N)=O)C(C)C)NC(=O)[C@H](Cc2ccc(O)cc2)NC(=O)[C@H](CCCNC(=N)N)NC(=O)[C@H](CCCCN)NC(=O)[C@H](CC(C)C)NC(=O)[C@H](CC(C)C)NC(=O)[C@H](CCCCN)NC1=O)C(C)C)C(C)C` (Ac-LKRVWKRV[R8]KLLKRY[S5]RQLKKPVR-NH2; staple (Z) 9-16), for which the MIC came out at 38 mg/L (≈ 11.8 µM) with Klebsiella pneumoniae, 9.7 mg/L (≈ 3.01 µM) with Staphylococcus aureus, 38 mg/L (≈ 11.8 µM) in the experiment on Pseudomonas aeruginosa and 9.6 mg/L (≈ 2.98 µM) in the experiment with Streptococcus pneumoniae.

On to `CC(=O)N[C@@H](CC(C)C)C(=O)N[C@@H](CCCCN)C(=O)N[C@@H](CCCNC(=N)N)C(=O)N[C@H](C(=O)N[C@@H](Cc1c[nH]c2ccccc12)C(=O)N[C@@H](CCCCN)C(=O)N[C@@H](CCCNC(=N)N)C(=O)N[C@H](C(=O)N[C@@]1(C)CCC/C=C\CCC[C@@](C)(C(=O)N[C@@H](CCCNC(=N)N)C(=O)N[C@@H](Cc2ccc(O)cc2)C(=O)N[C@@H](Cc2c[nH]c3ccccc23)C(=O)N[C@@H](CCCNC(=N)N)C(=O)N[C@@H](CCC(N)=O)C(=O)N[C@@H](CC(C)C)C(=O)N[C@@H](CCCCN)C(=O)N[C@@H](CCCCN)C(=O)N2CCC[C@H]2C(=O)N[C@H](C(=O)N[C@@H](CCCNC(=N)N)C(N)=O)C(C)C)NC(=O)[C@H](CC(C)C)NC(=O)[C@H](CC(C)C)NC(=O)[C@H](CCCCN)NC1=O)C(C)C)C(C)C` (Ac-LKRVWKRV[S5]KLL[S5]RYWRQLKKPVR-NH2; staple (Z) 9-13), for which the MIC in the experiment on Klebsiella pneumoniae amounted to 38 mg/L (≈ 11.7 µM); in the experiment with Staphylococcus aureus it was 2.5 mg/L (≈ 0.771 µM); with Pseudomonas aeruginosa, 5 mg/L (≈ 1.54 µM); with Streptococcus pneumoniae it was 9.6 mg/L (≈ 2.96 µM).

On to `CC(=O)N[C@@H](CC(C)C)C(=O)N[C@@H](CCCCN)C(=O)N[C@@H](CCCNC(=N)N)C(=O)N[C@H](C(=O)N[C@@H](Cc1c[nH]c2ccccc12)C(=O)N[C@@H](CCCCN)C(=O)N[C@@H](CCCNC(=N)N)C(=O)N[C@]1(C)CCCCCC/C=C\CCC[C@@](C)(C(=O)N[C@@H](Cc2c[nH]c3ccccc23)C(=O)N[C@@H](CCCNC(=N)N)C(=O)N[C@@H](CCC(N)=O)C(=O)N[C@@H](CC(C)C)C(=O)N[C@@H](CCCCN)C(=O)N[C@@H](CCCCN)C(=O)N2CCC[C@H]2C(=O)N[C@H](C(=O)N[C@@H](CCCNC(=N)N)C(N)=O)C(C)C)NC(=O)[C@H](CCCNC(=N)N)NC(=O)[C@H](CCCCN)NC(=O)[C@H](CC(C)C)NC(=O)[C@H](CC(C)C)NC(=O)[C@H](CCCCN)NC(=O)[C@H](Cc2ccccc2)NC1=O)C(C)C` (Ac-LKRVWKR[R8]FKLLKR[S5]WRQLKKPVR-NH2; staple (Z) 8-15), for which the MIC in the experiment with Klebsiella pneumoniae came out at 38 mg/L (≈ 11.5 µM); in the experiment with Staphylococcus aureus, 9.7 mg/L (≈ 2.94 µM); in the experiment on Pseudomonas aeruginosa, 5 mg/L (≈ 1.52 µM); in the experiment on Streptococcus pneumoniae, 19 mg/L (≈ 5.76 µM).

As a reminder, the MIC is the lowest concentration found to suppress growth.

Values taken from ChEMBL document CHEMBL6153110, “Peptide Double-Stapling and Arginine N-Glycosylation Triggered the Development of Therapeutic Antimicrobial Peptides Capable of Killing Drug-Resistant Bacteria in Mice” (J Med Chem, 2025).
